Data published in patent US20250228242A1 (priority 2021, published 2025).
Counter-ions that a name gives are not always drawn.

Test system: P. infestans
Test: whole plant or invertebrate
Assay type: in vivo
Settings: Phytophthora infestans, in Solanum tuberosum, read-out: P. infestans % inhibition

SMILES | inhibition at 100 µM [%]
Clc1ccc(-c2cc(-c3cccc(N4CCOCC4)c3)[nH]n2)cc1 [Compound 3, 4-{3-[3-(4-Chlorophenyl)-1H-pyrazol-5-yl]phenyl}morpholine] | 20
CN1CCOc2cc(-c3cc(-c4cccc(Br)c4)[nH]n3)ccc21 [Compound 44, 7-[5-(3-Bromophenyl)-1H-pyrazol-3-yl]-4-methyl-3,4-dihydro-2H-1,4-benzoxazine] | 5
Nc1ccc(-c2cc(-c3ccccc3F)no2)cc1 [Compound 45, 5-(4-Aminophenyl)-3-(2-fluorophenyl)-isoxazole] | 76
CC(=O)Nc1ccc(-c2cc(-c3ccccc3F)no2)cc1 [Compound 46, N-{4-[3-(2-Fluorophenyl)-isoxazol-5-yl]phenyl}acetamide] | 7
Cc1ccc(S(=O)(=O)Nc2ccc(-c3cc(-c4ccccc4F)no3)cc2)cc1 [Compound 47, N-{4-[3-(2-Fluorophenyl)-isoxazol-5-yl]phenyl}-4-methylbenzenesulfonamide] | 19
COc1cc(-c2cc(-c3cccc(C(F)(F)F)c3)no2)ccc1Cl [Compound 48, 5-(4-Chloro-3-methoxyphenyl)-3-[3-(trifluoromethyl)phenyl]-isoxazole] | 21
Oc1cc(-c2cc(-c3cccc(C(F)(F)F)c3)no2)ccc1Cl [Compound 49, 5-(4-Chloro-3-hydroxyphenyl)-3-[3-(trifluoromethyl)phenyl]-isoxazole] | 3
Brc1cccc(-c2cc(-c3ccc4c(c3)OCCO4)n[nH]2)c1 [Compound 50, 5-(3-Bromophenyl)-3-(2,3-dihydro-1,4-benzodioxin-6-yl)-1H-pyrazole] | 28
COc1cccc(-c2nc(-c3ccc(F)cc3)no2)c1 [Compound 51, 3-(4-Fluorophenyl)-5-(3-methoxyphenyl)-1,2,4-oxadiazole] | 8
CCSc1ccc(-c2cc(-c3ccccc3Cl)no2)cc1 [Compound 52, 3-(2-Chlorophenyl)-5-[4-(ethylsulfanyl)phenyl]-1,2-oxazole] | 9
Cc1ccc(-c2cc(-c3cccc(OC(F)(F)F)c3)no2)cc1C [Compound 53, 5-(3,4-Dimethylphenyl)-3-[3-(trifluoromethoxy)phenyl]-isoxazole] | 23
O=C(Nc1cccc(-c2c[nH]c(-c3ccc(F)cc3)n2)c1)C(F)(F)F [Compound 54, 2,2,2-Trifluoro-N-{3-[2-(4-fluorophenyl)-1H-imidazol-5-yl]phenyl}acetamide] | 91
O=C(Nc1ccc(O)cc1)c1ccc(-c2nc(-c3ccc(N4CCCC4)cc3)c[nH]2)cc1 [Compound 55, N-(4-Hydroxyphenyl)-4-{4-[4-(pyrrolidin-1-yl)phenyl]-1H-imidazol-2-yl}benzamide] | 85
O=C(O)c1ccc(-c2n[nH]c(-c3ccc(Cl)cc3)n2)cc1 [Compound 56, 4-[5-(4-Chlorophenyl)-1H-1,2,4-triazol-3-yl]benzoic acid hydrochloride] | 17
COc1ccc(NC(=O)Nc2ccc(-c3cc(-c4cccc(F)c4)on3)cc2)cc1 [Compound 57, 1-{4-[5-(3-Fluorophenyl)-1,2-oxazol-3-yl]phenyl}-3-(4-methoxyphenyl)urea] | 8
NCCCC[C@H](N)C(=O)Nc1ccc(-c2nc(-c3ccc(OC(F)(F)F)cc3)n[nH]2)cc1 [Compound 58, (2S)-2,6-Diamino-N-(4-{3-[4-(trifluoromethoxy)phenyl]-1H-1,2,4-triazol-5-yl}phenyl)hexanamide dihydrochloride] | 89
O=C(c1ccc(-c2n[nH]c(-c3ccc(Cl)cc3)n2)cc1)N1CCOCC1 [Compound 59, {4-[5-(4-Chlorophenyl)-1H-1,2,4-triazol-3-yl]phenyl}(morpholin-4-yl)methanone hydrochloride] | 87
Oc1ccc(-c2coc(-c3ccc4ncccc4c3)n2)cc1 [Compound 60, 6-[4-(4-Hydroxyphenyl)-1,3-oxazol-2-yl]quinoline] | 9
O=C(Nc1ccc(-c2nc(-c3ccc(OC(F)(F)F)cc3)n[nH]2)cc1)C(F)(F)F [Compound 61, 2,2,2-Trifluoro-N-(4-{5-[4-(trifluoromethoxy)phenyl]-1H-1,2,4-triazol-3-yl}phenyl)acetamide] | 71
O=C(O)c1cccc(-c2noc(-c3ccccc3F)n2)c1 [Compound 62, 3-[5-(2-Fluorophenyl)-1,2,4-oxadiazol-3-yl]benzoic acid] | 64
COc1ccc(-c2nc(-c3ccc(C(F)(F)F)cc3)no2)cc1 [Compound 64, 5-(4-Methoxyphenyl)-3-[4-(trifluoromethyl)phenyl]-1,2,4-oxadiazole] | 23
CSc1ccc(Cl)c(-c2nc(-c3cccc(OC(F)(F)F)c3)no2)c1 [Compound 65, 5-[2-Chloro-5-(methylsulfanyl)phenyl]-3-[3-(trifluoromethoxy)phenyl]-1,2,4-oxadiazole] | 31
CCc1ccc(-c2nc(-c3ccc(OC(F)(F)F)cc3)c[nH]2)cc1 [Compound 66, 2-(4-Ethylphenyl)-4-[4-(trifluoromethoxy)phenyl]-1H-imidazole] | 29

SMILES | inhibition at 100 µM [%]
COc1ccc(-c2noc(-c3cccc(Cl)c3)n2)cc1 [Compound 67, 5-(3-Chlorophenyl)-3-(4-methoxyphenyl)-1,2,4-oxadiazole] | 55
COc1ccc(-c2noc(-c3ccccc3Br)n2)cc1 [Compound 68, 5-(2-Bromophenyl)-3-(4-methoxyphenyl)-1,2,4-oxadiazole] | 17
O=C(O)c1cccc(-c2ncc(-c3ccc(C(F)(F)F)cc3O)o2)c1 [Compound 69, 3-{5-[2-Hydroxy-4-(trifluoromethyl)phenyl]-1,3-oxazol-2-yl}benzoic acid] | 99
Oc1ccc(-c2noc(-c3ccc(Cl)cc3)n2)cc1 [Compound 70, 5-(4-Chlorophenyl)-3-(4-hydroxyphenyl)-1,2,4-oxadiazole] | 33
FC(F)(F)c1cccc(-c2cc(-c3ccc4c(c3)OCCO4)n[nH]2)c1 [Compound 71, 3-(2,3-Dihydro-1,4-benzodioxin-6-yl)-5-[3-(trifluoromethyl)phenyl]-1H-pyrazole] | 36
Oc1ccc(-c2nc(-c3ccc(C(F)(F)F)cc3)no2)cc1 [Compound 72, 5-(4-Hydroxyphenyl]-3-[4-(trifluoromethyl)phenyl]-1,2,4-oxadiazole] | 83
O=[N+]([O-])c1ccc(-c2nc(-c3cccc(C(F)(F)F)c3)no2)cc1 [Compound 73, 5-(4-Nitrophenyl)-3-[3-(trifluoromethyl)phenyl]-1,2,4-oxadiazole] | 2
Nc1ccc(-c2nc(-c3cccc(C(F)(F)F)c3)no2)cc1 [Compound 74, 5-(4-Aminophenyl)-3-[3-(trifluoromethyl)phenyl]-1,2,4-oxadiazole] | 18
CC(C)OC(=O)Nc1ccc(-c2nc(-c3cccc(C(F)(F)F)c3)no2)cc1 [Compound 75, Propan-2-yl (4-{3-[3-(trifluoromethyl)phenyl]-1,2,4-oxadiazol-5-yl}phenyl)carbamate] | 31
COC(=O)Nc1ccc(-c2nc(-c3ccc(OC(F)(F)F)cc3)n[nH]2)cc1 [Compound 77, Methyl (4-{5-[4-(trifluoromethoxy)phenyl]-1H-1,2,4-triazol-3-yl}phenyl)carbamate] | 6
Oc1ccc(-c2c[nH]c(-c3ccc(Cl)cc3)n2)cc1 [Compound 78, 2-(4-Chlorophenyl)-5-(4-hydroxyphenyl)-1H-imidazole] | 79
Cc1cccc(-c2nc(-c3ccc(Cl)c(Cl)c3)c[nH]2)c1 [Compound 79, 5-(3,4-Dichlorophenyl)-2-(3-methylphenyl)-1H-imidazole] | 81
Clc1cccc(-c2cc(-c3ccc4c(c3)OCCO4)n[nH]2)c1 [Compound 80, 5-(3-Chlorophenyl)-3-(2,3-dihydro-1,4-benzodioxin-6-yl)-1H-pyrazole] | 77
Oc1ccc(F)cc1-c1c[nH]c(-c2ccc(C(F)(F)F)cc2)n1 [Compound 81, 5-(2-Hydroxy-5-fluorophenyl)-2-[4-(trifluoromethyl)phenyl]-1H-imidazole] | 10
COCCNC(=O)Nc1ccc(-c2n[nH]c(-c3ccc(C(F)(F)F)cc3)n2)cc1 [Compound 82, 1-(2-Methoxyethyl)-3-(4-{5-[4-(trifluoromethyl)phenyl]-1H-1,2,4-triazol-3-yl}phenyl)urea] | 18
O=C(O)c1ccc(-c2cc(-c3cccc(C(F)(F)F)c3)no2)cc1 [Compound 83, 4-{3-[3-(Trifluoromethyl)phenyl]-1,2-oxazol-5-yl}benzoic acid] | 26
FC(F)(F)Oc1ccc(-c2c[nH]c(-c3ccc(Br)cc3)n2)cc1 [Compound 84, 2-(4-Bromophenyl)-5-[4-(trifluoromethoxy)phenyl]-1H-imidazole] | 96
Cc1ccc(-c2cc(-c3ccc(O)cc3)no2)cc1 [Compound 85, 3-(4-Hydroxyphenyl)-5-(4-methylphenyl)-1,2-oxazole] | 10
COc1cccc(-c2cnc(-c3cccc(Br)c3)[nH]2)c1 [Compound 86, 2-(3-Bromophenyl)-5-(3-methoxyphenyl)-1H-imidazole] | 75
Oc1cccc(-c2cnc(-c3cccc(Br)c3)[nH]2)c1 [Compound 87, 2-(3-Bromophenyl)-5-(3-hydroxyphenyl)-1H-imidazole] | 99
O=C(Nc1cccc(-c2c[nH]c(-c3ccc(F)cc3)n2)c1)c1ccccc1 [Compound 88, N-{3-[2-(4-fluorophenyl)-1H-imidazol-5-yl]phenyl}benzamide] | 28
Cc1ccc(-c2noc(-c3ccc(S(C)(=O)=O)cc3)n2)cc1 [Compound 89, 3-(4-Methylphenyl)-5-[4-(methylsulfonyl)phenyl]-1,2,4-oxadiazole] | 8
CCc1ccc(-c2cc(-c3ccc(N4CCC4)cc3)on2)cc1 [Compound 90, 5-[4-(Azetidin-1-yl)phenyl]-3-(4-ethylphenyl)-1,2-oxazole] | 13
